Laboratory results published in patent US8796289B2 (AbbVie Inc., priority 2011, dated 2014).

Target: GST-tagged-Wee1 kinase (Homo sapiens, UniProt P30291)
Assay: Wee1 time-resolved fluorescence equilibrium binding assay (displacement of Oregon Green-labeled ATP-competitive kinase probe)
Method: Wee1 kinase was assayed using a time-resolved fluorescence equilibrium binding assay monitoring displacement of a rapidly reversible Oregon Green-labeled ATP-competitive kinase probe (N-(2-(2-(2-(4-(4-(5-chloro-4-(2-(1-hydroxycyclobutyl)thiazol-5-yl)-1H-pyrrolo[2,3-b]pyridin-2-yl)phenyl)piperazin-1-yl)ethoxy)ethoxy)ethyl)-2′,7′-difluoro-3′,6′-dihydroxy-3-oxo-3H-spiro[isobenzofuran-1,9′-xanthene]-5-carboxamide) by competitive Wee1 inhibitors.

Chain of GST-tagged-Wee1 kinase (P30291 whole entry): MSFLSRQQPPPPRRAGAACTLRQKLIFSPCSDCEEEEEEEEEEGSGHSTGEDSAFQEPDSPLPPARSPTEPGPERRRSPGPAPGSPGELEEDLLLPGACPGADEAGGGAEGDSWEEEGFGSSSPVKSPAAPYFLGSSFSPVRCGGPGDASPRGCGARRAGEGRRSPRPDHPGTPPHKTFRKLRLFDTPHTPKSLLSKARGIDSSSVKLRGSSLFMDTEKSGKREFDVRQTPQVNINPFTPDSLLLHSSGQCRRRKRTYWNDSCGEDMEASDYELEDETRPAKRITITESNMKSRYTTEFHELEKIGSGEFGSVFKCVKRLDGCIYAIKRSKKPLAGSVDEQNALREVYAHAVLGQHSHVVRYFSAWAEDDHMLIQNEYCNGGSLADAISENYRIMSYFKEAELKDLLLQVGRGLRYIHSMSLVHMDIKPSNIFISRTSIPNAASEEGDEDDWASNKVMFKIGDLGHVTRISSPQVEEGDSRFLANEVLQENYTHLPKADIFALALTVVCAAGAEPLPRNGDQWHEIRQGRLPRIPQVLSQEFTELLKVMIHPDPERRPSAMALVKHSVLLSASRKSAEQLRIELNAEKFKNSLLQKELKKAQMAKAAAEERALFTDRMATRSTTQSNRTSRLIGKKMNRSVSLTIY

| SMILES | Ki |
| --- | --- |
| COCCn1ccc(-c2nn(-c3c(Cl)cccc3Cl)c(=O)c3cnc(Nc4ccc(N5CCN(C)CC5)cc4)nc23)n1 [Example 252, 6-(2,6-dichlorophenyl)-8-[1-(2-methoxyethyl)-1H-pyrazol-3-yl]-2-{[4-(4-methylpiperazin-1-yl)phenyl]amino}pyrimido[4,5-d]pyridazin-5(6H)-one] | 0.4 nM |
| O=c1c2cnc(Nc3ccc4c(c3)CNCC43CC3)nc2c(-c2ccncc2)nn1-c1c(Cl)cccc1Cl [Example 253, 6-(2,6-dichlorophenyl)-2-(2′,3′-dihydro-1′H-spiro[cyclopropane-1,4′-isoquinolin]-7′-ylamino)-8-(pyridin-4-yl)pyrimido[4,5-d]pyridazin-5(6H)-one] | 0.09 nM |
| O=C1CCCN1c1ccc(-c2nn(-c3c(Cl)cccc3Cl)c(=O)c3cnc(Nc4ccc(C5CCNCC5)cc4)nc23)cc1 [Example 254, 6-(2,6-dichlorophenyl)-8-[4-(2-oxopyrrolidin-1-yl)phenyl]-2-{[4-(piperidin-4-yl)phenyl]amino}pyrimido[4,5-d]pyridazin-5(6H)-one] | 0.3 nM |
| O=c1c2cnc(Nc3ccc(S(=O)(=O)N4CCOCC4)cc3)nc2c(-c2ccccc2)nn1-c1ccccc1Cl [Example 255, 6-(2-chlorophenyl)-2-{[4-(morpholin-4-ylsulfonyl)phenyl]amino}-8-phenylpyrimido[4,5-d]pyridazin-5(6H)-one] | > 3140 nM |
| CN1Cc2cc(Nc3ncc4c(=O)n(-c5c(Cl)cccc5Cl)nc(-c5ccncc5)c4n3)ccc2C(C)(C)C1 [Example 256, 6-(2,6-dichlorophenyl)-8-(pyridin-4-yl)-2-[(2,4,4-trimethyl-1,2,3,4-tetrahydroisoquinolin-7-yl)amino]pyrimido[4,5-d]pyridazin-5(6H)-one] | 0.3 nM |
| O=c1c2cnc(Nc3ccc4c(c3)CNCC43CC3)nc2c(-c2cccc(F)n2)nn1-c1c(Cl)cccc1Cl [Example 257, 6-(2,6-dichlorophenyl)-2-(2′,3′-dihydro-1′H-spiro[cyclopropane-1,4′-isoquinolin]-7′-ylamino)-8-(6-fluoropyridin-2-yl)pyrimido[4,5-d]pyridazin-5(6H)-one] | 2 nM |
| C=CCn1nc(-c2ccco2)c2nc(Nc3ccc4c(c3)CN(C)CC4)ncc2c1=O [Example 258, 8-(furan-2-yl)-2-[(2-methyl-1,2,3,4-tetrahydroisoquinolin-7-yl)amino]-6-(prop-2-en-1-yl)pyrimido[4,5-d]pyridazin-5(6H)-one] | 2 nM |
| NCCn1ccc(-c2nn(-c3c(Cl)cccc3Cl)c(=O)c3cnc(Nc4ccc(N5CCNCC5)cc4)nc23)n1 [Example 259, 8-[1-(2-aminoethyl)-1H-pyrazol-3-yl]-6-(2,6-dichlorophenyl)-2-{[4-(piperazin-1-yl)phenyl]amino}pyrimido[4,5-d]pyridazin-5(6H)-one] | 0.2 nM |
| CN1CCN(c2ccc(Nc3ncc4c(=O)n(-c5c(Cl)cccc5Cl)nc(-c5ccnc(Cl)c5)c4n3)cc2)CC1 [Example 260, 8-(2-chloropyridin-4-yl)-6-(2,6-dichlorophenyl)-2-{[4-(4-methylpiperazin-1-yl)phenyl]amino}pyrimido[4,5-d]pyridazin-5(6H)-one] | 0.2 nM |
| CNCCn1ccc(-c2nn(-c3c(Cl)cccc3Cl)c(=O)c3cnc(Nc4ccc(N5CCN(C)CC5)cc4)nc23)n1 [Example 261, 6-(2,6-dichlorophenyl)-8-{1-[2-(methylamino)ethyl]-1H-pyrazol-3-yl}-2-{[4-(4-methylpiperazin-1-yl)phenyl]amino}pyrimido[4,5-d]pyridazin-5(6H)-one] | 0.3 nM |
| CN1Cc2cc(Nc3ncc4c(=O)n(C5CCCCC5)nc(-c5ccccn5)c4n3)ccc2C(C)(C)C1 [Example 262, 6-cyclohexyl-8-(pyridin-2-yl)-2-[(2,4,4-trimethyl-1,2,3,4-tetrahydroisoquinolin-7-yl)amino]pyrimido[4,5-d]pyridazin-5(6H)-one] | 590 nM |
| CC1(C)CNCc2cc(Nc3ncc4c(=O)n(-c5c(Cl)cccc5Cl)nc(-c5ccccn5)c4n3)ccc21 [Example 263, 6-(2,6-dichlorophenyl)-2-[(4,4-dimethyl-1,2,3,4-tetrahydroisoquinolin-7-yl)amino]-8-(pyridin-2-yl)pyrimido[4,5-d]pyridazin-5(6H)-one] | 0.3 nM |
| CC1(C)CNCc2cc(Nc3ncc4c(=O)n(-c5ccccn5)nc(-c5ccccn5)c4n3)ccc21 [Example 264, 2-[(4,4-dimethyl-1,2,3,4-tetrahydroisoquinolin-7-yl)amino]-6,8-di(pyridin-2-yl)pyrimido[4,5-d]pyridazin-5(6H)-one] | 12 nM |
| O=c1c2cnc(Nc3ccc(N4CCNCC4)cc3)nc2c(-c2ccccn2)nn1CCO [Example 267, 6-(2-hydroxyethyl)-2-{[4-(piperazin-1-yl)phenyl]amino}-8-(pyridin-2-yl)pyrimido[4,5-d]pyridazin-5(6H)-one] | 240 nM |
| COCn1ccc(-c2nn(-c3c(Cl)cccc3Cl)c(=O)c3cnc(Nc4ccc(N5CCN(C)CC5)cc4)nc23)n1 [Example 268, 6-(2,6-dichlorophenyl)-8-[1-(methoxymethyl)-1H-pyrazol-3-yl]-2-{[4-(4-methylpiperazin-1-yl)phenyl]amino}pyrimido[4,5-d]pyridazin-5(6H)-one] | 0.1 nM |
| C=CCn1nc(-c2ccco2)c2nc(Nc3ccc(N4CCCC4=O)cc3)ncc2c1=O [Example 269, 8-(furan-2-yl)-2-{[4-(2-oxopyrrolidin-1-yl)phenyl]amino}-6-(prop-2-en-1-yl)pyrimido[4,5-d]pyridazin-5(6H)-one] | 58 nM |
| CN1CCN(c2ccc(Nc3ncc4c(=O)n(-c5c(Cl)cccc5Cl)nc(-c5ccn(CCO)n5)c4n3)cc2)CC1 [Example 270, 6-(2,6-dichlorophenyl)-8-[1-(2-hydroxyethyl)-1H-pyrazol-3-yl]-2-{[4-(4-methylpiperazin-1-yl)phenyl]amino}pyrimido[4,5-d]pyridazin-5(6H)-one] | < 1 nM |
| CN1CCN(c2ccc(Nc3ncc4c(=O)n(-c5c(Cl)cccc5Cl)nc(-c5cnccn5)c4n3)cc2)CC1 [Example 271, 6-(2,6-dichlorophenyl)-2-{[4-(4-methylpiperazin-1-yl)phenyl]amino}-8-(pyrazin-2-yl)pyrimido[4,5-d]pyridazin-5(6H)-one] | 0.4 nM |
| CC(C)n1nc(-c2ccccn2)c2nc(Nc3ccc(N4CCN(C)CC4)cc3)ncc2c1=O [Example 272, 2-{[4-(4-methylpiperazin-1-yl)phenyl]amino}-6-(propan-2-yl)-8-(pyridin-2-yl)pyrimido[4,5-d]pyridazin-5(6H)-one] | 100 nM |
| CC(C)n1nc(-c2ccncc2)c2nc(Nc3ccc(N4CCN(C)CC4)cc3)ncc2c1=O [Example 273, 2-{[4-(4-methylpiperazin-1-yl)phenyl]amino}-6-(propan-2-yl)-8-(pyridin-4-yl)pyrimido[4,5-d]pyridazin-5(6H)-one] | 11 nM |
| CC(C)n1nc(-c2ccccn2)c2nc(Nc3ccc4c(c3)CN(C)CC43CC3)ncc2c1=O [Example 274, 2-[(2′-methyl-2′,3′-dihydro-1′H-spiro[cyclopropane-1,4′-isoquinolin]-7′-yl)amino]-6-(propan-2-yl)-8-(pyridin-2-yl)pyrimido[4,5-d]pyridazin-5(6H)-one] | 179 nM |
| CC(C)n1nc(-c2ccncc2)c2nc(Nc3ccc4c(c3)CN(C)CC43CC3)ncc2c1=O [Example 275, 2-[(2′-methyl-2′,3′-dihydro-1′H-spiro[cyclopropane-1,4′-isoquinolin]-7′-yl)amino]-6-(propan-2-yl)-8-(pyridin-4-yl)pyrimido[4,5-d]pyridazin-5(6H)-one] | 3.2 nM |
| CN1CCN(c2ccc(Nc3ncc4c(=O)n(-c5c(Cl)cccc5Cl)nc(-c5ccc(Br)cc5)c4n3)cc2)CC1 [Example 276, 8-(4-bromophenyl)-6-(2,6-dichlorophenyl)-2-{[4-(4-methylpiperazin-1-yl)phenyl]amino}pyrimido[4,5-d]pyridazin-5(6H)-one] | 1.1 nM |
| COC(=O)c1ccc(-c2nn(-c3c(Cl)cccc3Cl)c(=O)c3cnc(Nc4ccc(N5CCN(C)CC5)cc4)nc23)cc1 [Example 277, methyl 4-[6-(2,6-dichlorophenyl)-2-{[4-(4-methylpiperazin-1-yl)phenyl]amino}-5-oxo-5,6-dihydropyrimido[4,5-d]pyridazin-8-yl]benzoate] | 1.2 nM |
| CN1CCN(c2ccc(Nc3ncc4c(=O)n(-c5c(Cl)cccc5Cl)nc(C5CCC5)c4n3)cc2)CC1 [Example 278, 8-cyclobutyl-6-(2,6-dichlorophenyl)-2-{[4-(4-methylpiperazin-1-yl)phenyl]amino}pyrimido[4,5-d]pyridazin-5(6H)-one] | 0.83 nM |
| O=c1c2cnc(Nc3ccc(N4CCNCC4)cc3)nc2c(C2CCC2)nn1-c1c(Cl)cccc1Cl [Example 279, 8-cyclobutyl-6-(2,6-dichlorophenyl)-2-{[4-(piperazin-1-yl)phenyl]amino}pyrimido[4,5-d]pyridazin-5(6H)-one] | 1.2 nM |
| CN1Cc2cc(Nc3ncc4c(=O)n(-c5c(Cl)cccc5Cl)nc(C5CCC5)c4n3)ccc2C2(CC2)C1 [Example 280, 8-cyclobutyl-6-(2,6-dichlorophenyl)-2-[(2′-methyl-2′,3′-dihydro-1′H-spiro[cyclopropane-1,4′-isoquinolin]-7′-yl)amino]pyrimido[4,5-d]pyridazin-5(6H)-one] | 0.51 nM |
| O=c1c2cnc(Nc3ccc4c(c3)CNCC43CC3)nc2c(C2CCC2)nn1-c1c(Cl)cccc1Cl [Example 281, 8-cyclobutyl-6-(2,6-dichlorophenyl)-2-(2′,3′-dihydro-1′H-spiro[cyclopropane-1,4′-isoquinolin]-7′-ylamino)pyrimido[4,5-d]pyridazin-5(6H)-one] | 0.53 nM |
| CN1CCN(c2ccc(Nc3ncc4c(=O)n(C5CCC5)nc(-c5ccncc5)c4n3)cc2)CC1 [Example 282, 6-cyclobutyl-2-{[4-(4-methylpiperazin-1-yl)phenyl]amino}-8-(pyridin-4-yl)pyrimido[4,5-d]pyridazin-5(6H)-one] | 58 nM |
